Article PMC8047011, “Enantiomers of 2-methylglutamate and 2-methylglutamine selectively impact mouse brain metabolism and behavior” (Scientific Reports, 2021)
pEC50: −log10 of the molar value.

Legend:
[1] = target: human glutamine synthetase (Homo sapiens, UniProt P15104); assay: Catalysis of 2MeGlu C5-amidation by human glutamine synthetase; format: biochemical; conditions: 10 mM substrate, 5 ng/mL enzyme, ATP, NH4Cl
Protocol: The procedure was adapted from an existing protocol. To a reaction mixture in a 1.5 mL microcentrifuge tube containing 10 mM substrate, 10 mM ATP, 20 mM MgCl2, 40 mM NH4Cl, 25 mM 2-mercaptoethanol in 100 mM imidazole–HCl buffer pH 7.0, recombinant human glutamine synthetase (final concentration: 5 ng/mL) was added. The tubes were incubated in a preheated thermomixer at 37 °C and shaken at 600 rpm (30 s on, 30 s off). 5 μL aliquots were collected in triplicate every 5 min and immediately diluted with 195 μL of cold 60% ACN containing 10 μM Glu-d5 and Gln-d5 as internal standards in a 96 well plate. After collecting all samples, 200 μL of ACN was added to all wells and the plate was shaken at 1000 rpm for 5 min at room temperature, and then stored at − 80 °C until analysis.

GABAB (B1b/B2) = target: T1, GABAB (B1b/B2) (Homo sapiens, UniProt Q9UBS5); assay: GABAB (B1b/B2) binding assay; conditions: triplicate, read-out: % of radioligand binding inhibition, GABAB (B1b/B2)
T1 construct: purchased SB Drug Discovery (CNS discovery panel, FLIPR); Eurofins Discovery (Cerep)
Protocol: (§1) mGluR1, mGluR2, mGluR5 and GABAB binding assays were performed by Eurofins Discovery. […]
mGluR5 and GABAB binding assays were performed using recombinant CHO-K1 cells and
(§2) [3H]CGP-54626 and [3H]quisqalic acid, respectively. All compounds were tested at a single
(§3) concentration of 100 uM in triplicate. […]

GABAA α3β2γ2 = target: T2, GABAA α3β2γ2 (Homo sapiens, UniProt P34903+P47870); assay: FLIPR functional receptor assay, GABAA α3β2γ2; format: cell-based; conditions: agonist mode; top test concentration 1 mM
T2 construct: host or cells: HEK 293
Protocol: Receptor functional & binding assays
Functional assays of all GABAA, NMDA (GluN2A–GluN2D) and AMPA (GluA2) receptor subunits were performed by SB Drug Discovery as a part of their CNS discovery panel using FLIPR technology. Briefly, receptor-expressing HEK 293 cell lines were incubated in a red membrane potential dye in HEPES:HBSS pH 7.4 buffer and the fluorescence (λex: 488, λex: 510–570) was monitored over time as the test compounds and/or reference compounds were added to the solution. In agonist assay, only test compounds were added. In positive allosteric modulator assay, cells were preincubated with test compounds and then low concentration (approximately EC20) of an appropriate agonist was added. In antagonist assay, cells were preincubated with test compounds and then high concentration (approximately EC80) of an appropriate agonist was added. For GABAA assays, GABA was used as the agonist, picrotoxin was used as the reference antagonist and allopregnanolone was used as the reference positive allosteric modulator (PAM). For NMDA assays, a mixture of glutamate, glycine and CaCl2 was used as the agonist, MK801 was the reference antagonist and pregnenolone sulfate or GNE 9278 were used as reference PAMs. […] All compounds were tested at 7 concentration points in triplicate and EC50/IC50 was determined where applicable. […]

mGluR1 = target: T3, mGluR1 (Rattus norvegicus, UniProt P23385); assay: mGluR1 radioligand binding assay; conditions: triplicate
T3 construct: purchased SB Drug Discovery (CNS discovery panel, FLIPR); Eurofins Discovery (Cerep)
Protocol: as §1, §2, §3

C57Bl/6 mice = format: in vivo; conditions: for Distance moved in the novel cage: single dose 100, 300, or 900 mg/kg IP, dose- and time-dependent, P < 0.001
Protocol: See Supplementary Methods for details.
The lysate was centrifuged (2,500g for 15 min at 4 °C) and the supernatant was assayed using Pierce BCA Protein Assay Kit (23225) using BioTek Epoch plate spectrophotometer by recording absorbance at 562 nm.
Two or three 10 μL aliquots of the homogenate were transferred to a 96 well plate and extracted with 190 μL of 60% acetonitrile in water containing 10 μM GABA-d6 or 10 μM Glu-d5 and Gln-d5 as internal standards. 40 μL aliquots of the extracts were then diluted with 120 μL of acetonitrile and prepared for LC-MS/MS analysis. Brain and serum half-lives were calculated using the ‘PKNCA’ package for R. Endogenous levels of Glu, Gln and GABA were determined in the brains of mice used in the pharmacokinetics experiment. MRM transitions specific for Glu, Gln and GABA were monitored simultaneously.
In vivo animal studies; Maximum Tolerated Dose (MTD) and behavioral studies […]
000664) were group-housed in a Stanford University animal facility with 12:12 hour light/dark cycle ([…]) and had free access to water and food. All behavioral tests were conducted during the animal dark-cycle. […]
Novel Cage Observation: The mouse was dosed and immediately placed in the center of a clean, Innovive disposable rat cage with bedding (dimensions: 17"L x 13.4"W x 7.8"H) and allowed to move freely while being tracked automatically. Mice were monitored with Ethovision XT tracking software for the distance moved and average velocity during the 60-minute trial. […]
Hot plate test: Hot Plate apparatus (IITC Inc. Model 39) was set to 55°C± 0.2. […] Latency time was recorded when hind paw licking or jumping off first occurred.
SHIRPA: The SHIRPA preliminary screen designed by Rogers et al. (1997) was modified and used to assess the general health and behavioral traits of the mice for the initial five minutes after drug administration. […] The test began by placing the mouse in the clear plastic viewing jar for 60 seconds, and the behavioral parameters were monitored and recorded. […]
Behavioral parameters monitored were according to Portmann et al. (2014). […]

T3 sequence (P23385 19-1199): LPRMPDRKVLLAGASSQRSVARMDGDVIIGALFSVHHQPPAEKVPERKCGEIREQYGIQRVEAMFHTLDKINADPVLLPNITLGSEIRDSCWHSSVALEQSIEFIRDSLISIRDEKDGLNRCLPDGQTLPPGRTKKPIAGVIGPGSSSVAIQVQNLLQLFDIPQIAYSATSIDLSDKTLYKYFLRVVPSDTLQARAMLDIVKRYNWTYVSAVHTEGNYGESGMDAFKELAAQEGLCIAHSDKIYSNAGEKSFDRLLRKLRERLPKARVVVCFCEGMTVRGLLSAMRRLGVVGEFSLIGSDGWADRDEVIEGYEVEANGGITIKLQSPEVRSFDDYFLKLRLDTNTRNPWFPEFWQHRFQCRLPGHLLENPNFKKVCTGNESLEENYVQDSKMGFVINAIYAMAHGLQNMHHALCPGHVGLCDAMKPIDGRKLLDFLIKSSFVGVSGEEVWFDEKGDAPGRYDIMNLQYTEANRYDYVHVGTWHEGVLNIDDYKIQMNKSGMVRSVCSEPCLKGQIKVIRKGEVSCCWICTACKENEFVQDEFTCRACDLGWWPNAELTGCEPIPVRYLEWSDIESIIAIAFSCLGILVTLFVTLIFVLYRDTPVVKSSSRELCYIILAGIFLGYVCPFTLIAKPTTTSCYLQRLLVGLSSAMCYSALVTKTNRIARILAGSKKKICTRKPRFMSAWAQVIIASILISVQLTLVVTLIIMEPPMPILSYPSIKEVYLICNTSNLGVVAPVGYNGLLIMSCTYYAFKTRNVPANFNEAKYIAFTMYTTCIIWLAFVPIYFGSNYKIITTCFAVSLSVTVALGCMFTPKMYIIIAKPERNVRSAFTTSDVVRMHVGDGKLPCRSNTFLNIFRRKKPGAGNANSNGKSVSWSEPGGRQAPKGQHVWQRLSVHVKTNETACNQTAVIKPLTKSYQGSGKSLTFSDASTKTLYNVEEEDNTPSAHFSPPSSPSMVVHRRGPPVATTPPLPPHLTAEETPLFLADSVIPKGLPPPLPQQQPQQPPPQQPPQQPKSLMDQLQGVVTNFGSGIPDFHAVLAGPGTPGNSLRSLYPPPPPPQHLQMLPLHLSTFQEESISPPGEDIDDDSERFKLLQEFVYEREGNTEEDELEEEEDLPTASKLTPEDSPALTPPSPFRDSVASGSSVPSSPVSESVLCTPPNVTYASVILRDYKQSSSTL
T2 sequence (P34903 29-492): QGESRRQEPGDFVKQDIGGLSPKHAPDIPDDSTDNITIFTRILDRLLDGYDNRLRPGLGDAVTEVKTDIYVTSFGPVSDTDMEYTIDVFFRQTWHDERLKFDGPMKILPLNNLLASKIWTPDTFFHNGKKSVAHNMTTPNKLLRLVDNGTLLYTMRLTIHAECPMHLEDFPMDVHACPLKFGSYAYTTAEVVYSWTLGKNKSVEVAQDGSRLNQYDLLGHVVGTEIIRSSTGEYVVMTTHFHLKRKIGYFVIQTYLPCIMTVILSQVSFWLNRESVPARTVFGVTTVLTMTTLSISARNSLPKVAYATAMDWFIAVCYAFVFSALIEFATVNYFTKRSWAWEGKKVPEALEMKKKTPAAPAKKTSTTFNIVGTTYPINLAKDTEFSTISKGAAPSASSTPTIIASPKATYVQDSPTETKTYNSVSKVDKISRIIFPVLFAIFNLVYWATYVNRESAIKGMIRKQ
T2 sequence (P47870 25-512 limits assumed): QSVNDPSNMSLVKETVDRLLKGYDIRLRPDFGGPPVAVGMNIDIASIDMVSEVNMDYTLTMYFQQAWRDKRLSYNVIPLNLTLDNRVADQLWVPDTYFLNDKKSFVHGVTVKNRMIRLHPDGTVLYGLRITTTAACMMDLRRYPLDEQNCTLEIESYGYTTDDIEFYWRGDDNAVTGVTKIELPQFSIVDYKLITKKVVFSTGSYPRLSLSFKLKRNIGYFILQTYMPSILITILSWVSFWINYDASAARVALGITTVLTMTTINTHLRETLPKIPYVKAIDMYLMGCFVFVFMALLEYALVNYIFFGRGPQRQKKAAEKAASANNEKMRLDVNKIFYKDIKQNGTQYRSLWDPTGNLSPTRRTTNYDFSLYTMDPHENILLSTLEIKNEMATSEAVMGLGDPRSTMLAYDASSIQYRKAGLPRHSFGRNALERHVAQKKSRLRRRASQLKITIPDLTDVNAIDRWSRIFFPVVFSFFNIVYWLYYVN
T2 sequence (P18507 40-475 partner): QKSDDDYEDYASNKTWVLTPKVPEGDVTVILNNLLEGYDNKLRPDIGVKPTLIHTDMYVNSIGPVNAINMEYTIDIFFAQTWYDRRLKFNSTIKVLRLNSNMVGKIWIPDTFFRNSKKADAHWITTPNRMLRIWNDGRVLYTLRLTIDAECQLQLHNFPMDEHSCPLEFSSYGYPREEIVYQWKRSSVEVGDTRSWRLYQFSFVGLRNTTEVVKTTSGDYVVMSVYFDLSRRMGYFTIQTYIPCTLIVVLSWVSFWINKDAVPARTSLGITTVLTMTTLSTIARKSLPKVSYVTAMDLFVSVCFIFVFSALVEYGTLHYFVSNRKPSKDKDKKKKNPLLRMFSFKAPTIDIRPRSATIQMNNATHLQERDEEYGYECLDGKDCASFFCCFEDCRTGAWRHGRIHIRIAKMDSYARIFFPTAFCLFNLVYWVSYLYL
T1 sequence (Q9UBS5 1-844 isoform Q9UBS5-2): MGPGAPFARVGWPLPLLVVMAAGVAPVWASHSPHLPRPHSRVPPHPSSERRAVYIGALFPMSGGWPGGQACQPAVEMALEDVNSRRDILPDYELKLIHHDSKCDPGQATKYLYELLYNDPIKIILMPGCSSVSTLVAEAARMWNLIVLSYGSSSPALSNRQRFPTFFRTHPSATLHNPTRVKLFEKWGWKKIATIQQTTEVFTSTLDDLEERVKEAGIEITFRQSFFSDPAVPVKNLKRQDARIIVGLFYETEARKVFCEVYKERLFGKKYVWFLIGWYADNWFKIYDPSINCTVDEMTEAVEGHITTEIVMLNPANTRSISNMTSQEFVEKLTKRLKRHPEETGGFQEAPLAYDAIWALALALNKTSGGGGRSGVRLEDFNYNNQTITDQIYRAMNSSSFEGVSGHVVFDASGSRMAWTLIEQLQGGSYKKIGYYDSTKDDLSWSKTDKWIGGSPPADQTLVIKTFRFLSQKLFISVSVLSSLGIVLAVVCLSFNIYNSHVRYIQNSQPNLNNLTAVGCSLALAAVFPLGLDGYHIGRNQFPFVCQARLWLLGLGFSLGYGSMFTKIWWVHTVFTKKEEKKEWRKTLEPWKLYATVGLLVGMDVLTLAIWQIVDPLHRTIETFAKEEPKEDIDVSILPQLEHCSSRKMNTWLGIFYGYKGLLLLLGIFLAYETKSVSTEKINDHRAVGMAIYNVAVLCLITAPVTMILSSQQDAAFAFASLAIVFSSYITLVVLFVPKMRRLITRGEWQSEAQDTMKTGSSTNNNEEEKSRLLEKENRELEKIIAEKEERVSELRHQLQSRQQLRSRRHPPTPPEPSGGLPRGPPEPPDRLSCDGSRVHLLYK
T1 sequence (O75899 42-941 partner): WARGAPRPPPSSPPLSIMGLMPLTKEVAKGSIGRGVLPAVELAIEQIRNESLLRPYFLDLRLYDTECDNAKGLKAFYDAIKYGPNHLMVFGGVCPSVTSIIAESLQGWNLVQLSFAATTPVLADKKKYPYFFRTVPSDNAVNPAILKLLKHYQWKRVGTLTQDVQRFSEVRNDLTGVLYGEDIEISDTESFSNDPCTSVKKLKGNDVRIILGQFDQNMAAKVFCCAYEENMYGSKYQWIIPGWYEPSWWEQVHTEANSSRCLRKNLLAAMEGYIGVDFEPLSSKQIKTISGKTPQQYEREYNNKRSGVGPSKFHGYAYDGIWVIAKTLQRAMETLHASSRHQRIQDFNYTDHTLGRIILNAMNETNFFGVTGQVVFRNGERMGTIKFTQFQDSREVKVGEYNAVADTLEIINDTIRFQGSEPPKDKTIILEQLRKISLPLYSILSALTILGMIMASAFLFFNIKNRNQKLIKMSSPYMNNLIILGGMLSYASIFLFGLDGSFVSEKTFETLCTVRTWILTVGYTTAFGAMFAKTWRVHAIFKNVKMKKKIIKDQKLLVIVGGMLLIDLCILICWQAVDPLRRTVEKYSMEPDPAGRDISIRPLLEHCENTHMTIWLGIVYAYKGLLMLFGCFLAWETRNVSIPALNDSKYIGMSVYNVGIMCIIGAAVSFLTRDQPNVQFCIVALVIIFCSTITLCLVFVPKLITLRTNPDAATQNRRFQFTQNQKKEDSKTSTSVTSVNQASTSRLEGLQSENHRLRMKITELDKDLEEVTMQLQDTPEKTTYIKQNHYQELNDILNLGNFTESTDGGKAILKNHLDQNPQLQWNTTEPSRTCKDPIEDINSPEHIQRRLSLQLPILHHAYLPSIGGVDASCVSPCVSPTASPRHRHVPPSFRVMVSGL
Sequence of human glutamine synthetase (P15104 whole entry): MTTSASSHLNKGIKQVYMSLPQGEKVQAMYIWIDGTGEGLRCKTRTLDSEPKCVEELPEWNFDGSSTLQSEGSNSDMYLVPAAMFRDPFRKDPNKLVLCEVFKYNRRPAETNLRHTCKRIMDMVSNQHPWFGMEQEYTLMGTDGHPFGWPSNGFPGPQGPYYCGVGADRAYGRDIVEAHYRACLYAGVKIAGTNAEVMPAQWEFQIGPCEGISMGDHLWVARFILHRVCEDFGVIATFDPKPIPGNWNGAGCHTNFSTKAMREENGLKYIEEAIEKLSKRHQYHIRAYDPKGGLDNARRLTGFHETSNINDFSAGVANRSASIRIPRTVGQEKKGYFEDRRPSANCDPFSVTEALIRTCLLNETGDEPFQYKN

Structure (SMILES): C[C@@](N)(CCC(=O)O)C(=O)O [(R)-2MeGlu, (R)-2-methylglutamic acid]
- Substrate for glutamine synthetase (GS) [1]: not a substrate for GS
- inhibition at 100 µM (GABAB (B1b/B2)): 13%
- pEC50 (GABAA α3β2γ2): < 3.00
- inhibition at 100 µM (mGluR1): -3%
- Survival after single dose (C57Bl/6 mice; male, C57Bl/6, mouse, in vivo): Only one mouse died 10 days after 900 mg/kg
- Distance moved in the novel cage (C57Bl/6 mice): significantly decreased

Structure (SMILES): C[C@](N)(CCC(=O)O)C(=O)O [(S)-2MeGlu, (S)-2-methylglutamic acid]
- Substrate for glutamine synthetase (GS) [1]: is a substrate for GS
- inhibition at 100 µM (GABAB (B1b/B2)): 14%
- pEC50 (GABAA α3β2γ2): 3.02
- inhibition at 100 µM (mGluR1): 6%
- Distance moved in the novel cage (C57Bl/6 mice): significantly decreased
